This passage reports AC50, EC50 and IC50 results from ChEMBL document CHEMBL1201862, “PubChem BioAssay data set” (2004).

For orientation: AC50 means the concentration at which the activity in the assay is half-maximal. One may read the EC50 as the midpoint of the concentration-response curve. As a reminder, the IC50 is the concentration at which inhibition is half-maximal.

SMILES strings stand for the structures. Activity calls are given as the source filed them.

A short description of experiment [1]: off-target signal loss in HeLa-CEM21 co-culture – HeLa F-luc CTL cells, cherry-picked, counter-screen for HIV-1 Env fusion inhibitor project, dose response (AID 652040).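 Also: potency for signal decrease marking cytotoxic or nonspecific inhibition.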 In kind it is functional, cell-based. On the technique in general: A counterscreen serves to expose hits that act by an unwanted route or on another target.
Experiment [2] in a line: Luminescence Cell-Based Dose Confirmation HTS to Identify Inhibitors of Platelet Dense Granule Release. [Related pubchem assays: 1663 (Primary HTS), 1678 (Summary of Project)]. In kind it is functional.
Experiment [3] is described as follows: blockade of melanocortin 4 receptor signaling – cell-based, plate reader, cherry pick, counter-screen for LGR2 antagonist project, dose response (AID 743444).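 Also: transfected HEK 293 cells stimulated with alpha-MSH peptide; potency of inhibitors of the alpha-MSH evoked signal.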 Format: functional.
Experiment [4] can be described thus: viability loss in HEK293 cells – cell-based, plate reader, cherry-picked samples, cytotoxicity control, dose response (AID 743446). Format: functional.
The nature of experiment [5]: blockers of bursicon-stimulated LGR2 cAMP reporter – cell-based, HEK293, CRE-luciferase reporter, cherry pick, set 2, dose response (AID 743343).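 Also: transfected cells were stimulated with diluted bursicon conditioned medium after compound addition.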 Format: functional. For orientation: A reporter such as luciferase makes a cellular process visible.
Experiment [6] is described as follows: toxicity toward HepG2 liver cells – cell-based, plate reader, cherry-pick, antagonist series, cytotoxicity control, dose response (AID 743416). In kind it is functional.
Experiment [7] can be described thus: viability loss in CEM21 cells – cell-based, CellTiter-Glo luminescence, cherry-picked, cytotoxicity control for viral fusion inhibitor project, dose response (AID 652042).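 Also: potency for signal decrease meaning cytotoxicity.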 In kind it is functional. For orientation: Cellular ATP, detected with luciferase, serves as a proxy for viable cell number.
The nature of experiment [8]: blockers of HIV-1 envelope-mediated cell-cell fusion – cherry-pick, dose response (AID 652057). In kind it is functional, cell-based.
Experiment [9] in a line: HIV-1 AD8 envelope cell-cell fusion blockers – cherry-pick, dose response (AID 652062).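 Also: luciferase signal from cell-cell fusion driven by HIV-1 clade B AD8 Env; potency is for inhibitors of fusion seen as a drop in luminescence.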 In kind it is functional, cell-based.
The target of experiment [10] is T1, Heat shock factor protein 1 (Mus musculus, UniProt P38532).
T1 sequence (P38532 whole entry): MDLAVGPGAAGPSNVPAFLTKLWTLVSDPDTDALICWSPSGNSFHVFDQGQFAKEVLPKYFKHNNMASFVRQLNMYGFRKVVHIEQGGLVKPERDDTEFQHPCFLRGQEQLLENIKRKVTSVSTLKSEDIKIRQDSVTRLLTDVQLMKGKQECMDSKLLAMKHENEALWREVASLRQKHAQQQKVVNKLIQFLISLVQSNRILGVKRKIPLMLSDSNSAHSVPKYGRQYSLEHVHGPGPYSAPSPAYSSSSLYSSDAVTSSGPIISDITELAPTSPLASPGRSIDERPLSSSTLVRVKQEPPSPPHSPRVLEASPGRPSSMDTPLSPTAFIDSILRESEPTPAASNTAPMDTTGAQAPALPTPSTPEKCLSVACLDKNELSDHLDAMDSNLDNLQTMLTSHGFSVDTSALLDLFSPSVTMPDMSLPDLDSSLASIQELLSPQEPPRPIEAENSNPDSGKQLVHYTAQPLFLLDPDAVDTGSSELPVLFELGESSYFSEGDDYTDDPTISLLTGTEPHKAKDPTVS
The experiment can be described thus: decrease of HSF1-responsive luciferase luminescence – cell-based, NIH3T3, dose retest, confirmation (AID 2382).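 Also: NIH3T3 fibroblasts with HSF1-driven luciferase reporter stressed by proteasome inhibitor MG132; luminescence from HSF1-driven luciferase expression after 8 hours of MG132 stress.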 In kind it is functional.

The next experiment deals with A-375. Briefly: MITF: Counter assay: A375 proliferation Measured in Cell-Based System Using Plate Reader - 2084-03_Inhibitor_Dose_DryPowder_Activity. [Related pubchem assays (depositor defined):AID488944]. In kind it is functional. The conditions noted are these: Homo sapiens.
Experiment [11] in a line: HEK-293T viability loss after treatment – luminescence, T-cell screen hits, cytotoxicity control for TCR NF-kB inhibitor project, dose response (AID 489026).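 Also: cells exposed to compound about 14 hours before the viability readout.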 Format: functional, cell-based.
Experiment [12] is described as follows: blockers of HIV-1 ZM109 envelope-driven cell-cell fusion – HeLa effector, CEM target cells, luciferase, cherry-pick, dose response (AID 652058).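 Also: luciferase signal from HIV-1 Env mediated cell-cell fusion of effector and target cells.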 In kind it is functional, cell-based.
Experiment [13] is described as follows: A549 cell cytotoxicity, dose response, cytotoxicity control, plate reader, cherry-pick, antagonist series (AID 743412). Format: functional, cell-based.
Experiment [14] deals with T2, Microphthalmia-associated transcription factor (Homo sapiens, UniProt O75030).
T2 sequence (O75030 whole entry): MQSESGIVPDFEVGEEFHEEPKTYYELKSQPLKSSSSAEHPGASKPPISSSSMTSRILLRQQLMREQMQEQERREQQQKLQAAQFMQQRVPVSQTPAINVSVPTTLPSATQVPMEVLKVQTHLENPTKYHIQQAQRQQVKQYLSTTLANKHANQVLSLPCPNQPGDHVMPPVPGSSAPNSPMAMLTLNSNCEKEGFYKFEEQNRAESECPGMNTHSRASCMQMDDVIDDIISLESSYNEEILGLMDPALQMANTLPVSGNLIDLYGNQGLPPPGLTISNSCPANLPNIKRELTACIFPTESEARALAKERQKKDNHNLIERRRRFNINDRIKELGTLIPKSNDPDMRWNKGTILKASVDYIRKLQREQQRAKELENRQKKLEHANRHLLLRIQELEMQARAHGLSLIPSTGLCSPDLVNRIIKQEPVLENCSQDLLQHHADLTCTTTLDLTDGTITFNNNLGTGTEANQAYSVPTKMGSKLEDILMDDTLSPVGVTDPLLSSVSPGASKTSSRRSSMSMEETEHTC
Briefly: reducers of TRPM1 reporter luminescence, concentration series – cell-based, SK-MEL-5, cherry-picked, set 3, MITF inhibitor project, dose response (AID 493073).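 Also: SK-MEL-5 melanoma cells with luciferase driven by the MITF target TRPM1 promoter.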 Format: functional.

Experiment [15] can be described thus: reduction of Shn3 3'UTR-driven luciferase in osteoblasts – cell-based, Clone20 osteoblasts, firefly luciferase, cherry-picked, dose response (AID 624132).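 Also: firefly luciferase luminescence from reporter carrying the Shn3 3'UTR in osteoblasts.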 In kind it is functional.
Experiment [16] addresses Luciferin 4-monooxygenase (Photinus pyralis, UniProt P08659). Briefly: inhibition of purified Photinus pyralis luciferase – biochemical, luminescence, dose response (AID 1891).
Experiment [17] can be described thus: general cell-killing toxicity readout – plate reader, dry powder samples, cytotoxicity control for PAX8 inhibitor project, dose response (AID 743021). In kind it is functional, cell-based.
The nature of experiment [18]: loss of viability in HepG2 cells – cell-based, CellTiter-Glo, cherry-picked, cytotoxicity control for Shn3 inhibitor project, dose response (AID 624134). Format: functional.
The next experiment deals with Paired box protein Pax-8 (Homo sapiens, UniProt Q06710). Briefly: PAX8 transcriptional activity inhibition in RMG-I – RMG-I cells, luciferase, cherry-pick, dose response (AID 687027).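 Also: luciferase reporter driven by Pax8 target thyroperoxidase promoter measured by SteadyGlo luminescence.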 In kind it is functional, cell-based.
Paired box protein Pax-8, sequence (Q06710 whole entry): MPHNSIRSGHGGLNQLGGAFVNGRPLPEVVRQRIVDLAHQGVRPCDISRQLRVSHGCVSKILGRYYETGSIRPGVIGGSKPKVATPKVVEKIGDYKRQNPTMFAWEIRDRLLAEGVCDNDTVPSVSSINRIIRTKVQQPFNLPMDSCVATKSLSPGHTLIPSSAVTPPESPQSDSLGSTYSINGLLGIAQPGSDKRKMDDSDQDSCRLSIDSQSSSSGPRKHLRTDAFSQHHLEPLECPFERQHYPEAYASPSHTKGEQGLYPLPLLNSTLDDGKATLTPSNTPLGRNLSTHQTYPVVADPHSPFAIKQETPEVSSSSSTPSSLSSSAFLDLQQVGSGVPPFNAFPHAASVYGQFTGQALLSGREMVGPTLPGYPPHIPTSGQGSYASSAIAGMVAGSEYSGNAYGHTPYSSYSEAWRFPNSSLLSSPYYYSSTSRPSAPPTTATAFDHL
Experiment [19] concerns the target T3, Intestinal-type alkaline phosphatase (Homo sapiens, UniProt P09923). The experiment can be described thus: inhibition of human intestinal alkaline phosphatase – biochemical, luminescent, uHTS hits, set 2, dose response (AID 488793). Format: functional.
In experiment [20] the target is T3, Intestinal-type alkaline phosphatase. Briefly: Dose Response confirmation of uHTS hits from a small molecule inhibitors of human intestinal alkaline phosphatase via a luminescent assay. [Related pubchem assays (depositor defined):AID2544, AID2574]. In kind it is functional.
Experiment [21] deals with T4, Alkaline phosphatase, tissue-nonspecific isozyme (Homo sapiens, UniProt P05186).
T4 sequence (P05186 whole entry): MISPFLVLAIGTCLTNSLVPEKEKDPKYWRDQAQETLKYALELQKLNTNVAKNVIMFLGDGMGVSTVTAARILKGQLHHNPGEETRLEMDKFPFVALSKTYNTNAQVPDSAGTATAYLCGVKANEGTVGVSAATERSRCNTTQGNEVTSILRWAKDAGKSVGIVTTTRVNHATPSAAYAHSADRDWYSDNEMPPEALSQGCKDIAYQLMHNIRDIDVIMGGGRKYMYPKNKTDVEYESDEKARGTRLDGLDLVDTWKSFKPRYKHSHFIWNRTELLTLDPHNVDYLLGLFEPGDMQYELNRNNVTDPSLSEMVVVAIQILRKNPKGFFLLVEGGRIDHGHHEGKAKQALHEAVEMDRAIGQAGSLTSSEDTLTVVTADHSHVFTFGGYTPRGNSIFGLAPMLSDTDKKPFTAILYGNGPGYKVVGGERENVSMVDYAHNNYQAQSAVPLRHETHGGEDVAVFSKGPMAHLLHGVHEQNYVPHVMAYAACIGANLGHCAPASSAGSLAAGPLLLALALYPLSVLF
Briefly: inhibition of tissue-nonspecific alkaline phosphatase – biochemical, dose response (AID 488882). Format: functional.

The target in experiment [22] is Intestinal-type alkaline phosphatase (Mus musculus, UniProt P24822). Briefly: PubChem AID 488874. In kind it is functional.
Intestinal-type alkaline phosphatase (Mus musculus, UniProt P24822), sequence (P24822 whole entry): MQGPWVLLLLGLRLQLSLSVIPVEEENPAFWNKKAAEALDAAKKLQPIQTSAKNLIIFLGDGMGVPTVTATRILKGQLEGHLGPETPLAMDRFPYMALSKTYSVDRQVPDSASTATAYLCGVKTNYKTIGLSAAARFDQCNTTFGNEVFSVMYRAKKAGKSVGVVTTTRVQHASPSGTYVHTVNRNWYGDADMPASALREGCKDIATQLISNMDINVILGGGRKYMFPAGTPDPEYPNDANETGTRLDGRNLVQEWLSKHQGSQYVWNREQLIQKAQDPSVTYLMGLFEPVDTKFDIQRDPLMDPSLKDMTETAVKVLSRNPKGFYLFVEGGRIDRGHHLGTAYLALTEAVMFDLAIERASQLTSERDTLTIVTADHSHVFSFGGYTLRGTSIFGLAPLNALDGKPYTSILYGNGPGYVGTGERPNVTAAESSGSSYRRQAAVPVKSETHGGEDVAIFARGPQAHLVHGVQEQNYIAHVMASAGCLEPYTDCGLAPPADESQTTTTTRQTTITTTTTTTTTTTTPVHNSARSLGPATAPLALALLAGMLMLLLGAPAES
In another experiment the target is Tumor necrosis factor (Homo sapiens, UniProt P01375). The experiment can be described thus: analog potency on TNFa NF-kB signaling – cell-based, revised, SAR follow-up (AID 2337). Format: functional.
Tumor necrosis factor, sequence (P01375 whole entry): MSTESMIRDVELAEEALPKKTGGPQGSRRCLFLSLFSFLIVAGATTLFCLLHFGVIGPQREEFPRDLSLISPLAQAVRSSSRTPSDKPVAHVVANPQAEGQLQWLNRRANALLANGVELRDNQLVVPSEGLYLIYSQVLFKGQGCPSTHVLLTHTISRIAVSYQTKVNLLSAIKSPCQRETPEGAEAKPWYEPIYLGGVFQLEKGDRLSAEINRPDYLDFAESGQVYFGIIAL
The next experiment deals with HEK293. The experiment can be described thus: cells. Particulars: Homo sapiens.
Experiment [23] has as its target Nucleotide-binding oligomerization domain-containing protein 1 (Homo sapiens, UniProt Q9Y239). The experiment can be described thus: blockers of NOD1 pathway activity – revised, SAR follow-up (AID 2333). Format: functional.
A short description of experiment [24]: T. cruzi infection blockers in NIH3T3 cells – beta-gal luminescence, NIH3T3 host cells, confirmation (AID 2630). Format: functional, cell-based. Particulars: Mus musculus.
A further experiment deals with Trypanosoma cruzi. Briefly: anti-trypanosomal activity in host cells – cell-based, plate reader, dry powder, set 3, dose response (AID 493197). In kind it is functional.
The target in a further experiment is Trypsin (Sus scrofa, UniProt P00761). Briefly: trypsin protease activity blockade – biochemical, quenched peptide fluorescence, cherry-pick, selectivity assay for Rce1 protease inhibitor project, dose response (AID 488789).
Trypsin, sequence (P00761 whole entry): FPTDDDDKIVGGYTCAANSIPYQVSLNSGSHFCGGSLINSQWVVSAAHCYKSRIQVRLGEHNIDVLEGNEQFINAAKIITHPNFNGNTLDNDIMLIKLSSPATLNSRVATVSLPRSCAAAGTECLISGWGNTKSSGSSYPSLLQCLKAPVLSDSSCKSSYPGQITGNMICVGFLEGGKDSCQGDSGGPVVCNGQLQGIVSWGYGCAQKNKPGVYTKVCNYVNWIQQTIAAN
A further experiment concerns the target CAAX prenyl protease 1 (Saccharomyces cerevisiae S288c, UniProt P47154). The experiment can be described thus: yeast CAAX protease Ste24 inhibition – biochemical, S. cerevisiae, plate reader, cherry-pick, dose response (AID 488815).
A further experiment concerns the target CAAX prenyl protease 2 (Homo sapiens, UniProt Q9Y256). Briefly: inhibition of Ras-converting CAAX protease Rce1 – biochemical, yeast membranes, quenched-peptide fluorescence, cherry-pick, dose response (AID 588849).

T3 sequence (P09923 whole entry): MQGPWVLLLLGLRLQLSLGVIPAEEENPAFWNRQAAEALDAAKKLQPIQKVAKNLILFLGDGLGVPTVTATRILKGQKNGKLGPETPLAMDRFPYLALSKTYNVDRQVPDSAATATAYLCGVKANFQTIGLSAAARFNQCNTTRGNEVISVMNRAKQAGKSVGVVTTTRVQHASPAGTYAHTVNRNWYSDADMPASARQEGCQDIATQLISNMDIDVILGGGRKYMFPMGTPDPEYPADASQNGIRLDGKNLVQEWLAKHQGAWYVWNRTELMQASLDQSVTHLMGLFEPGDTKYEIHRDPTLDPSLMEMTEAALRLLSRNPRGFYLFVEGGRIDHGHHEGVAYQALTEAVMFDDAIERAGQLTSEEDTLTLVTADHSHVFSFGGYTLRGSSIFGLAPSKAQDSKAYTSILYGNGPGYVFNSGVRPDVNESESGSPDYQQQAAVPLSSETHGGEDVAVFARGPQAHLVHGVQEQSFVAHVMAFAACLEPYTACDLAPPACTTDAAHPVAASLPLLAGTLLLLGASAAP
Nucleotide-binding oligomerization domain-containing protein 1, sequence (Q9Y239 whole entry, the tested form may be a part): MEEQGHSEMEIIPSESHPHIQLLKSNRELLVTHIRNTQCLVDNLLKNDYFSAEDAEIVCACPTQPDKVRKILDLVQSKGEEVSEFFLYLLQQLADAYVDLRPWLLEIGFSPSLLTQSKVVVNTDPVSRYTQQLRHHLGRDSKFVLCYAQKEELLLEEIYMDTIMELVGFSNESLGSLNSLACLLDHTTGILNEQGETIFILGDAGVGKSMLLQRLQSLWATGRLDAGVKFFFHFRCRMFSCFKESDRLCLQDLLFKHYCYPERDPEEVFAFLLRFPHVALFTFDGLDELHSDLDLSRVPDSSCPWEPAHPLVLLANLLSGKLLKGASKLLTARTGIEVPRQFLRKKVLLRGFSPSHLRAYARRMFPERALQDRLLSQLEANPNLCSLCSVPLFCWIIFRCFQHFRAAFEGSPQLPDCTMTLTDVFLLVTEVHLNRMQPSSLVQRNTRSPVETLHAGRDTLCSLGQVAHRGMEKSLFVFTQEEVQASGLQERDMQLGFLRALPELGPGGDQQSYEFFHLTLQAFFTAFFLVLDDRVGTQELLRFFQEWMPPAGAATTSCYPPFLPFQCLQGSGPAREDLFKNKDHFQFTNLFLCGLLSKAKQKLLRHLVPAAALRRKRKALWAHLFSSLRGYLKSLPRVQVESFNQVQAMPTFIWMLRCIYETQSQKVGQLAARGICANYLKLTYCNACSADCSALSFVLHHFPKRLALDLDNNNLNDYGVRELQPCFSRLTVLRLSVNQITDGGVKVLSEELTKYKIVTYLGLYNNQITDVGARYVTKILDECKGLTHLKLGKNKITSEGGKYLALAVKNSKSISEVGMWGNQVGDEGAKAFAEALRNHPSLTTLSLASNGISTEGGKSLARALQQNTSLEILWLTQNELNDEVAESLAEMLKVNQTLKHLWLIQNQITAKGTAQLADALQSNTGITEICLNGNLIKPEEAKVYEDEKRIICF
CAAX prenyl protease 1, sequence (P47154 whole entry): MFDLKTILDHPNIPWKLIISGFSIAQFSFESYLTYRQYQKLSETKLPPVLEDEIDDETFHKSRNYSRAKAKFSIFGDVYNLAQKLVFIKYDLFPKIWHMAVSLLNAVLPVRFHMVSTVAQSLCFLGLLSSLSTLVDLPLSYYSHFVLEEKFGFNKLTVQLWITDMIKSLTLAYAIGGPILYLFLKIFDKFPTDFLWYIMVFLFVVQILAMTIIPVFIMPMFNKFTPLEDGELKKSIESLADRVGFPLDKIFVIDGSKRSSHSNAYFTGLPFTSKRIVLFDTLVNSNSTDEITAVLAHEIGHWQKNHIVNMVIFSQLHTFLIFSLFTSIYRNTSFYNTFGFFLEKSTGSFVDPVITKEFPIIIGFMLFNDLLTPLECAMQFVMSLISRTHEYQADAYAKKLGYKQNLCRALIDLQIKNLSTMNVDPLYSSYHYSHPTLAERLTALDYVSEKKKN
Luciferin 4-monooxygenase, sequence (P08659 whole entry): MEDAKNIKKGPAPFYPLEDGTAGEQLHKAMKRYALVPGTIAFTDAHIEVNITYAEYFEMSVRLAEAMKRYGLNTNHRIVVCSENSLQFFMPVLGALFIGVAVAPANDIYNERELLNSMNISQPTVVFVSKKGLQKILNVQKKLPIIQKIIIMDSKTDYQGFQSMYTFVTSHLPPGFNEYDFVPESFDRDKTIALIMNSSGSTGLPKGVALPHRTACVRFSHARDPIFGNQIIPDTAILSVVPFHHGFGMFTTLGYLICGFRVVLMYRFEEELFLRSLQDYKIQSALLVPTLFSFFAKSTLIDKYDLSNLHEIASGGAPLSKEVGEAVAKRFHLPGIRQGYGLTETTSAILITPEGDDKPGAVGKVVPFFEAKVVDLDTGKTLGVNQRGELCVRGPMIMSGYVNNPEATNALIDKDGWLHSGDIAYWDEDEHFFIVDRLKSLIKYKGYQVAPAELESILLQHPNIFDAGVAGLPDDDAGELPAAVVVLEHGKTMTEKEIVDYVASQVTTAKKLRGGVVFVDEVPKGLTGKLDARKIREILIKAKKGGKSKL
CAAX prenyl protease 2, sequence (Q9Y256 whole entry): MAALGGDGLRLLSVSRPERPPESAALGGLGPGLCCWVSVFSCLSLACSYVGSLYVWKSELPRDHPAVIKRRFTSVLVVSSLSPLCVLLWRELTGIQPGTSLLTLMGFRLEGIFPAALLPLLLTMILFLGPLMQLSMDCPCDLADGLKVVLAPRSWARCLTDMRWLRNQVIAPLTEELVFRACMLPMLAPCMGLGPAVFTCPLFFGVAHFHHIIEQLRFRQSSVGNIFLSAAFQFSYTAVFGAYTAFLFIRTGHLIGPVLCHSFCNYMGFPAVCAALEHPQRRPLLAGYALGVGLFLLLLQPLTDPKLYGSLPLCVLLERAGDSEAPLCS

On to `C=CCn1c(C)cc(C2=NN=C(NCC)SC2)c1C`, for which the AC50 in experiment [1] was 0.554 µM (active); in experiment [3] it was < 0.068 µM (active); in experiment [4] it was 14.5 µM (active); in experiment [5] it was < 0.068 µM (active); in experiment [6], 3.64 µM (active); in experiment [7] it was 34.7 µM (active). Besides, the AC50 in experiment [8] was 0.295 µM (active); in experiment [9], 0.359 µM (active); in the experiment on A-375 it was 25.7 µM (active); in experiment [12], 2.94 µM (active); in [13] it was 11.7 µM (active); in experiment [14], 0.056 µM (active). Further, the concentration at half-maximal activity (AC50) in experiment [15] is < 0.26 µM (active); in experiment [17], 8.07 µM (active); in experiment [18], 26 µM (active); on Paired box protein Pax-8, 0.267 µM (active). Also, the EC50 in experiment [2] was 2.02 µM (active); in experiment [10], < 0.16 µM (active); in experiment [16], 5.03 µM (active). Moreover, the IC50 in [11] is > 80 µM (inactive).
In the case of `O=C(/C=C/c1ccccc1O)c1ccco1`, the half-inhibitory concentration (IC50) in [19] is 75.8 µM (active); in experiment [20], 47.6 µM (inactive); in experiment [21], 71.8 µM (active); in experiment [22], 62.9 µM (active).
Consider `COc1ccc(N2CCN(S(=O)(=O)c3ccc4c(c3)CC(C)N4C(C)=O)CC2)cc1` (configuration not stated), for which the IC50 at Tumor necrosis factor was 4.3 µM (active); with HEK293, > 20 µM (inactive); in [23], 3.63 µM (active).
`COc1ccc(CN2CCCC(C(=O)N3CCCC3)C2)c(OC)c1OC` (configuration not stated): in experiment [24], the 50% effective concentration (EC50) was 0.042 µM (active). Also, in the experiment with Trypanosoma cruzi, the AC50 was 1.01 µM (active).
As for `CCN(CC)CCn1c2ccccc2c2cnc(/N=C/N(C)C)c(C#N)c21`, the AC50 at Trypsin was 18 µM (active); at CAAX prenyl protease 1 it was 4.5 µM (active); at CAAX prenyl protease 2 it was 11.4 µM (active).
